IC50 data for 19 compounds are collected here from patent publication US10894784B2, “Heteroarylbenzimidazole compounds” (BAYER PHARMA AKTIENGESELLSCHAFT, priority 2015, dated 2021).

Chain of TBK1 (Q9UHD2 whole entry): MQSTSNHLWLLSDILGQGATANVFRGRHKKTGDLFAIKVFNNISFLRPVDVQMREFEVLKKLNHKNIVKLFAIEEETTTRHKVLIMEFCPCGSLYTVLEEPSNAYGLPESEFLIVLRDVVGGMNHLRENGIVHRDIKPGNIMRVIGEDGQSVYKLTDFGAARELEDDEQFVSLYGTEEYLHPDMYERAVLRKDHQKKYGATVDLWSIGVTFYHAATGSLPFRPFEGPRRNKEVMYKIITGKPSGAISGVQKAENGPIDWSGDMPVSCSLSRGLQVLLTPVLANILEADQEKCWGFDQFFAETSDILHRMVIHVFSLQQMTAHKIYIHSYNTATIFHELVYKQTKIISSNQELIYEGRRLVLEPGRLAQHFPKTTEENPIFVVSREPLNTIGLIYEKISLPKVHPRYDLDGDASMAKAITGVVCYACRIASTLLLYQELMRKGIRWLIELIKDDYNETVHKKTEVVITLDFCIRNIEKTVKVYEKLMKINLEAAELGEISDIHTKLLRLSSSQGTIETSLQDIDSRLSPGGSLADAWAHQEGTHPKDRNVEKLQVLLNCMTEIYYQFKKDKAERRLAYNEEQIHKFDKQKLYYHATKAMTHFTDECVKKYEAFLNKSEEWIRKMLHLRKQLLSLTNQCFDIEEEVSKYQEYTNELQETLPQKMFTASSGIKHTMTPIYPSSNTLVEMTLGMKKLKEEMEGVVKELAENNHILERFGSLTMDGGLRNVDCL

This assay concerns the target TBK1 (Homo sapiens (Human), UniProt Q9UHD2). In words: TBK1 low ATP kinase assay (in vitro assay 1). The class given is biochemical. To be noted: in vitro assay 1, read-out: TBK1 low ATP kinase assay IC50.
As to `Cc1noc(-c2ccc3nc(Nc4cc(CN5CCN(C(=O)N6CCCC6)CC5)ccn4)[nH]c3c2)n1` [Example 101.31, {4-[(2-{[6-(3-methyl-1,2,4-oxadiazol-5-yl)-1H-benzimidazol-2-yl]amino}pyridin-4-yl)methyl]piperazin-1-yl}(pyrrolidin-1-yl)methanone], the IC50 came to 510 nM.

For `CC(c1ccnc(Nc2nc3ccc(-c4cnn(CC5CC5(F)F)c4)c(Cl)c3[nH]2)c1)N1CCN(C(=O)C2CC2)CC1` (single isomer, unassigned) [Example 70.02, {4-[(1R or 1S)-1-(2-{[7-chloro-6-(1-{[(1RS)-2,2-difluorocyclopropyl]methyl}-1H-pyrazol-4-yl)-1H-benzimidazol-2-yl]amino}pyridin-4-yl)ethyl]piperazin-1-yl}(cyclopropyl)methanone], the IC50 was found to be 0.73 nM.

Turning to `Cc1noc(-c2ccc3nc(Nc4cc(CN5CCN(C(=O)C6CC6)C[C@H]5C)ccn4)[nH]c3c2)n1` [Example 16.03.04, cyclopropyl{(3R)-3-methyl-4-[(2-{[6-(3-methyl-1,2,4-oxadiazol-5-yl)-1H-benzimidazol-2-yl]amino}pyridin-4-yl)methyl]piperazin-1-yl}methanone], the IC50 was found to be 54.6 nM.

Regarding `CN(c1cc(-c2ccc3nc(Nc4cc(CN5CCN(C(=O)C6CC6)CC5)ccn4)[nH]c3c2)ncn1)C1CC1` [Example 157.03, cyclopropyl[4-({2-[(6-{6-[cyclopropyl(methyl)amino]pyrimidin-4-yl}-1H-benzimidazol-2-yl)amino]pyridin-4-yl}methyl)piperazin-1-yl]methanone], the IC50 is 7.6 nM.

With `Cn1cc(-c2ccc3nc(Nc4cc(CN5CCN(C(=O)CC(F)(F)F)CC5)ccn4)[nH]c3c2)cn1` [Example 37.01, 3,3,3-trifluoro-1-{4-[(2-{[6-(1-methyl-1H-pyrazol-4-yl)-1H-benzimidazol-2-yl]amino}pyridin-4-yl)methyl]piperazin-1-yl}propan-1-one], the IC50 turned out to be 55.3 nM.

Consider `COc1cncnc1-c1ccc2nc(Nc3cc(C(C)N4CCN(C(=O)CC(F)(F)F)CC4)ccn3)[nH]c2c1` (single isomer, unassigned) [Example 35.03.01.B, 3,3,3-trifluoro-1-{4-[(1S or 1R)-1-(2-{[6-(5-methoxypyrimidin-4-yl)-1H-benzimidazol-2-yl]amino}pyridin-4-yl)ethyl]piperazin-1-yl}propan-1-one], for which the concentration for half-maximal inhibition (IC50) came to 30 nM.

Turning to `CC(C)(C)OC(=O)N1CCN(Cc2ccnc(Nc3nc4ccc(-c5ccnc(N6CCCC6)n5)cc4[nH]3)c2)CC1` [Example 177.01, tert-butyl 4-{[2-({6-[2-(pyrrolidin-1-yl)pyrimidin-4-yl]-1H-benzimidazol-2-yl}amino)pyridin-4-yl]methyl}piperazine-1-carboxylate], the half-inhibitory concentration (IC50) is 227 nM.

For `CC(c1ccnc(Nc2nc3ccc(-c4cc(N5CCC5)ncn4)cc3[nH]2)c1)N1CCN(C(=O)OC(C)(C)C)CC1` (single isomer, unassigned) [Example 115.01, tert-butyl 4-{(1R or 1S)-1-[2-({6-[6-(azetidin-1-yl)pyrimidin-4-yl]-1H-benzimidazol-2-yl}amino)pyridin-4-yl]ethyl}piperazine-1-carboxylate], the IC50 turned out to be 1.4 nM.

`CN(c1cc(-c2ccc3nc(Nc4cc(CN5CCN(C(=O)C6CC6)CC5)ccn4)[nH]c3c2)ncn1)C1CCC1` [Example 156.03, [4-({2-[(6-{6-[cyclobutyl(methyl)amino]pyrimidin-4-yl}-1H-benzimidazol-2-yl)amino]pyridin-4-yl}methyl)piperazin-1-yl](cyclopropyl)methanone]: the IC50 worked out at 19 nM.

As for `Cc1cc(-c2ccc3nc(Nc4cc(CN5CCN(C(=O)C6CC6)CC5)ccn4)[nH]c3c2)ncn1` [Example 30.01.04, cyclopropyl{4-[(2-{[6-(6-methylpyrimidin-4-yl)-1H-benzimidazol-2-yl]amino}pyridin-4-yl)methyl]piperazin-1-yl}methanone], the IC50 worked out at 12.3 nM.

As for `Cc1nccc(-c2ccc3nc(Nc4cc(CN5CCN(C(=O)C6CCC6)CC5)ccn4)[nH]c3c2)n1` [Example 24.01.02, cyclobutyl{4-[(2-{[6-(2-methylpyrimidin-4-yl)-1H-benzimidazol-2-yl]amino}pyridin-4-yl)methyl]piperazin-1-yl}methanone], the IC50 was 39.9 nM.

Regarding `COCC1CCN(S(=O)(=O)N2CCN(Cc3ccnc(Nc4nc5ccc(-c6ncncc6OC)cc5[nH]4)c3)CC2)CC1` [Example 35.01.16, N-{4-[(4-{[4-(methoxymethyl)piperidin-1-yl]sulfonyl}piperazin-1-yl)methyl]pyridin-2-yl}-6-(5-methoxypyrimidin-4-yl)-1H-benzimidazol-2-amine], the half-inhibitory concentration (IC50) was 45.9 nM.

In the case of `Cc1noc(-c2ccc3nc(Nc4cc(CN5CCN(C=O)CC5)ccn4)[nH]c3c2)n1` [Example 101.01, 4-[(2-{[6-(3-methyl-1,2,4-oxadiazol-5-yl)-1H-benzimidazol-2-yl]amino}pyridin-4-yl)methyl]piperazine-1-carbaldehyde], the concentration for half-maximal inhibition (IC50) worked out at 680 nM.

As to `CC(c1ccnc(Nc2nc3ccc(-c4cnn(CC5CC5)c4)cc3[nH]2)c1)N1CCN(C(=O)C2CC2)CC1` (single isomer, unassigned) [Example 39.02.03, cyclopropyl(4-{(1R or 1S)-1-[2-({6-[1-(cyclopropylmethyl)-1H-pyrazol-4-yl]-1H-benzimidazol-2-yl}amino)pyridin-4-yl]ethyl}piperazin-1-yl)methanone], the IC50 is 1.66 nM.

For `O=C(C1CCC1)N1CCN(Cc2ccnc(Nc3nc4ccc(-c5ccn(CC6CC6)c(=O)c5)cc4[nH]3)c2)CC1` [Example 44.03, 4-{2-[(4-{[4-(cyclobutylcarbonyl)piperazin-1-yl]methyl}pyridin-2-yl)amino]-1H-benzimidazol-6-yl}-1-(cyclopropylmethyl)pyridin-2(1H)-one], the IC50 is 85.8 nM.

`Cc1noc(-c2ccc3nc(Nc4cc(CN5CCN(c6ccccc6F)CC5)ccn4)[nH]c3c2)n1` [Example 101.02, N-(4-{[4-(2-fluorophenyl)piperazin-1-yl]methyl}pyridin-2-yl)-6-(3-methyl-1,2,4-oxadiazol-5-yl)-1H-benzimidazol-2-amine]: the 50% inhibitory concentration (IC50) was determined as 680 nM.

Consider `O=C(CC(F)(F)F)N1CCN(Cc2ccnc(Nc3nc4ccc(-c5cc(C6CC6)ncn5)cc4[nH]3)c2)CC1` [Example 76.01, 1-{4-[(2-{[6-(6-cyclopropylpyrimidin-4-yl)-1H-benzimidazol-2-yl]amino}pyridin-4-yl)methyl]piperazin-1-yl}-3,3,3-trifluoropropan-1-one], for which the IC50 is 3.2 nM.

`COc1cncnc1-c1ccc2nc(Nc3cc(CN4CCN(S(=O)(=O)N(C)C)CC4)ccn3)[nH]c2c1` [Example 35.01.15, 4-[(2-{[6-(5-methoxypyrimidin-4-yl)-1H-benzimidazol-2-yl]amino}pyridin-4-yl)methyl]-N,N-dimethylpiperazine-1-sulfonamide]: the IC50 stood at 38 nM.

As to `COc1cc(-c2ccc3nc(Nc4cc(C(C)N5CCN(C(=O)CC(F)(F)F)CC5)ccn4)[nH]c3c2)ncn1` (single isomer, unassigned) [Example 34.03.01.B, 3,3,3-trifluoro-1-{4-[(1S or 1R)-1-(2-{[6-(6-methoxypyrimidin-4-yl)-1H-benzimidazol-2-yl]amino}pyridin-4-yl)ethyl]piperazin-1-yl}propan-1-one], the IC50 turned out to be 50.1 nM.
